{"source": "patent US20040253266A1", "about": "“Biological compositions and methods for treatment of esophageal cancer” (priority 2003, published 2004)", "key": {"[1]": {"test_system": "esophageal tumor SGA-73 cells", "test": "TA1 mouse model of human esophageal cancer (SGA-73 cells s.c.), tumor growth", "assay_type": "in vivo, TA1 mice", "details": "31st day, after 30 days treatment; AY/NY 0.3 ml per day oral, CTX 30 mg/kg per day s.c.", "method": "(§1) The oral composition comprising 10^8 cells per ml of activated and conditioned yeast cells of the strain Saccharomyces cerevisiae Hansen strain AS2.375 was prepared by the methods described in Section 5.1 and subsections therein.\nThe mice injected with tumor cells were kept for 3 days and then divided into 4 experimental groups of ten mice per group and one control group. The four experimental groups were triplicated (i.e., using a total of 120 mice in the experimental groups).\n(§2) The mice received the biological compositions, untreated yeast cells, CTX or saline on the same day as the tumor cells were transplanted. The mice in group CK2 also started receiving saline on the same day as the other four groups. The biological compositions, untreated yeast cells and saline were administered orally by a feeding tube and the CTX by subcutaneous injection for 30 consecutive days."}, "[2]": {"test_system": "esophageal tumor SGA-73 cells", "test": "TA1 mouse model of human esophageal cancer (SGA-73 cells), survival over 6 months", "assay_type": "in vivo, TA1 mice", "details": "for Number of live animals remaining in the groups after 30 days of treatment: 30 mice per group", "method": "The survival time of mice after tumor injection and treatment was studied.\nas §1\nThe animals were prepared in a similar manner as described in Section 8.1.\nThe mice injected with tumor cells were kept for 3 days and then divided into 4 experimental groups of ten mice per group and one control group. The four experimental groups were triplicated (i.e., using a total of 120 mice in the experimental groups). In group 2AY, the mice received 0.5 ml of the biological composition once per day. In group 2NY, the mice received 0.5 ml of the untreated yeast cells once per day. In group 2CTX, the mice were injected subcutaneously with 45 mg of cyclophosphamide (CTX) per kg body weight per day. In group 2CK1, the mice received 0.5 ml of physiological saline once per day.\nas §2, with “2CK2” for “CK2”, “days. The mice were observed over 6 months from the day of tumor inoculation and survival was recorded. The weight of the mice and the weight of the tumor were determined by standard techniques.” for “days.”"}, "esophageal cancer [3]": {"test_system": "esophageal cancer", "test": "Wistar rat model of human esophageal cancer (MBNA-induced), tumor growth", "assay_type": "in vivo, Wistar rats", "details": "31st day, after 30 days treatment; AY/NY 1.5 ml per day oral, VDS 3.0 mg/kg i.v. once a week", "method": "as §1\nThe four experimental groups were triplicated (i.e., using a total of 120 rats in the experimental groups)."}, "esophageal cancer [4]": {"test_system": "esophageal cancer", "test": "Wistar rat model of esophageal cancer, survival over 6 months", "assay_type": "in vivo, Wistar rats", "details": "for Number of live animals remaining in the groups after 30 days of treatment: 30 rats per group", "method": "The following example illustrates the benefit of a biological composition of the invention in a Wistar rat model of original position engrafted human esophageal cancer. The survival time of rats after tumor injection and treatment was studied.\nas §1\nThe animals were prepared in a similar manner as described in Section 6.1.\nThe rats that were fed with MBNA for 30 days were divided into 4 experimental groups of ten rats per group and one control group. The four experimental groups were triplicated (i.e., using a total of 120 rats in the experimental groups). In group 2AY, the rats received 1.5 ml of the biological composition in two doses per day. In group 2NY, the rats received 1.5 ml of the untreated yeast cells in two doses per day. […] In group 2CK1, the rats received 1.5 ml of physiological saline in two doses per day.\nThe rats received the biological compositions, untreated yeast cells, VDS or saline on the same day as the tumor cells were transplanted. The rats in group 2CK2 also started receiving saline on the same day as the other four groups. […] The rats were observed over 6 months from the day of tumor inoculation and survival was recorded. The weight of the rats, the weight of the esophagus, and the weight of the tumor were determined by standard techniques."}, "[5]": {"details": "0 month after cessation of treatment"}, "[6]": {"details": "1 month after cessation of treatment"}, "[7]": {"details": "2 months after cessation of treatment"}, "[8]": {"details": "3 months after cessation of treatment"}, "[9]": {"details": "4 months after cessation of treatment"}, "[10]": {"details": "5 months after cessation of treatment"}, "[11]": {"details": "6 months after cessation of treatment"}, "[12]": {"details": "mice that survived the 6 month observation"}, "[13]": {"details": "rats that survived the 6 month observation"}}}
{"smiles": "O=P1(N(CCCl)CCCl)NCCCO1", "note": "(stereo not shown) [CTX, cyclophosphamide]", "values": [{"measurement": "mean weight of mice and standard deviation", "setting": "[1]", "result": "18.2 ± 2.8", "unit": "g"}, {"measurement": "mean weight of tumor nodules and standard deviation", "setting": "[1]", "result": "384 ± 31", "unit": "mg"}, {"measurement": "Number of live animals remaining in the groups after 30 days of treatment", "setting": "[2]; [5]", "result": 30}, {"measurement": "Number of live animals remaining in the groups after 30 days of treatment", "setting": "[2]; [6]", "result": 30}, {"measurement": "survival time of mice", "setting": "[2]; 2AY/2NY 0.5 ml per day oral, 2CTX 45 mg/kg per day s.c.", "result": "all died after four months"}, {"measurement": "Number of live animals remaining in the groups after 30 days of treatment", "setting": "[2]; [7]", "result": 28}, {"measurement": "Number of live animals remaining in the groups after 30 days of treatment", "setting": "[2]; [8]", "result": 22}, {"measurement": "Number of live animals remaining in the groups after 30 days of treatment", "setting": "[2]; [9]", "result": 18}, {"measurement": "Number of live animals remaining in the groups after 30 days of treatment", "setting": "[2]; [10]", "result": 0}, {"measurement": "Number of live animals remaining in the groups after 30 days of treatment", "setting": "[2]; [11]", "result": 0}, {"measurement": "mean weight of mice and standard deviation", "setting": "[2]; [12]", "result": "all animals dead"}, {"measurement": "mean weight of tumor nodules and standard deviation", "setting": "[2]; [12]", "result": "all animals dead"}]}
{"smiles": "CC[C@]1(O)C[C@@H]2CN(CCc3c([nH]c4ccccc34)[C@@](C(=O)OC)(c3cc4c(cc3OC)N(C)[C@H]3[C@@](O)(C(N)=O)[C@H](O)[C@]5(CC)C=CCN6CC[C@]43[C@@H]65)C2)C1", "note": "[VDS, vindesine]", "values": [{"measurement": "mean weight of rats and standard deviation", "setting": "esophageal cancer [3]", "result": "173 ± 15", "unit": "g"}, {"measurement": "mean weight of tumor nodules and standard deviation", "setting": "esophageal cancer [3]", "result": "281 ± 31", "unit": "mg"}, {"measurement": "Number of live animals remaining in the groups after 30 days of treatment", "setting": "esophageal cancer [4]; [5]", "result": 30}, {"measurement": "Number of live animals remaining in the groups after 30 days of treatment", "setting": "esophageal cancer [4]; [6]", "result": 30}, {"measurement": "survival time of rats", "setting": "esophageal cancer [4]; 2AY/2NY 1.5 ml per day oral, 2VDS 3.0 mg/kg per week for four weeks", "result": "all died after five months"}, {"measurement": "Number of live animals remaining in the groups after 30 days of treatment", "setting": "esophageal cancer [4]; [7]", "result": 30}, {"measurement": "Number of live animals remaining in the groups after 30 days of treatment", "setting": "esophageal cancer [4]; [8]", "result": 30}, {"measurement": "Number of live animals remaining in the groups after 30 days of treatment", "setting": "esophageal cancer [4]; [9]", "result": 21}, {"measurement": "Number of live animals remaining in the groups after 30 days of treatment", "setting": "esophageal cancer [4]; [10]", "result": 3}, {"measurement": "Number of live animals remaining in the groups after 30 days of treatment", "setting": "esophageal cancer [4]; [11]", "result": 0}, {"measurement": "mean weight of esophagus and standard deviation", "setting": "esophageal cancer [4]; [13]", "result": "all animals dead"}, {"measurement": "mean weight of rats and standard deviation", "setting": "esophageal cancer [4]; [13]", "result": "all animals dead"}, {"measurement": "mean weight of tumor nodules and standard deviation", "setting": "esophageal cancer [4]; [13]", "result": "all animals dead"}]}
